The values below come from publication PMC5489165, “Identification of benzazole compounds that induce HIV-1 transcription” (PLoS ONE, 2017).

A short description of series [1]: Protein binding, human plasma (ultrafiltration). Format: in vitro ADME. Conditions: human plasma, 10 μM, pH 7.4.
Series [2] in a line: Protein binding, mouse plasma (ultrafiltration). Format: in vitro ADME. Conditions: pH 7.4. How it is done: Binding of test compound to plasma proteins was estimated by incubation of test compounds with mouse or human plasma. Human plasma was obtained from BioreclamationIVT (Westbury, NY). […] After a 15 min incubation at 37°C, triplicate aliquots of the incubation mixtures were transferred to a Millipore Multiscreen Ultracel-10 filter plate (10 kDa molecular mass cut off, EMD Millipore, Billerica, MA). The plate was centrifuged for 60 min at 3000 × g and 37°C. After centrifugation, aliquots of both the ultrafiltrates as well as the incubation mixtures prior to ultrafiltration were analyzed by LC-MS/MS to quantify the concentrations of test compound and reference compounds.

The subject of series [3] is HIV-1 Gag (p24) in ACH-2 cells. Nature of the series: Intracellular staining for HIV Gag in ACH-2 cells (flow cytometry). Format: cell-based. Conditions: 16 h, 30 μM Cmpd 1 or Cmpd 2, 10 μM SAHA, 1 mM JQ1 or 10 ng/ml PMA, single experiment (Fig 4A). How it is done:
ACH-2 cells were treated as indicated and HIV-1 expression was monitored by intracellular staining for p24. Approximately, 1 × 10^6 cells were collected and washed in PBS before fixing by resuspending in 100 μl of BD Cytofix/Cytoperm (BD Biosciences, San Jose, CA) at 4°C for at least 20 min. Cells were then harvested by centrifugation and resuspended in 100 μl BD PermWash (50 mM NH4Cl, 5 mM EDTA, 0.1% saponin, 0.5% BSA, PBS and 1 mg/ml of anti-HIV-Gag PE (Clone KC57, Beckman Coulter, Brea CA). Cells were stained for 30 min, washed with the PermWash, and resuspended in FACS buffer (2 mM EDTA, 0.5% BSA, 1% paraformaldehyde in PBS). Cells were analyzed by flow cytometry using a FACSCalibur instrument (BD Biosciences). Flow cytometry was performed at the Boston University School of Medicine flow cytometry core.
Fig 4 Induction of HIV-1 expressing cells following treatment with latency reversing agents. ACH-2 cells were not treated or treated with a final concentration of 30 μM Cmpd 1 or Cmpd 2, 10 μM SAHA, 1 mM JQ1 or 10 ng/ml PMA for 16 h. Cells were stained using anti-HIV-Gag-PE and analyzed by flow cytometry. Numbers within the profiles represent the percentage of positive cells. These profiles are from a single experiment. B) Data from four independent experiments. Y-axis is mean of % p24 positive cells. * Cmpd 1 p-value […] compared to other treatments using a two-tailed t-test. TEXT PRINTED IN THE PICTURE: (A) Cmpd 1: Intracellular Gag: 65.6% | (A) Cmpd 2: Intracellular Gag: 33.9% | (A) SAHA: Intracellular Gag: 23.0% | (A) JQ1: Intracellular Gag: 16.7% | (A) PMA: Intracellular Gag: 94.2%
In general terms: A flow cytometer gives signals particle by particle.

Series [4] relates to IL-2 secretion by PBMCs. Nature of the series: IL-2 ELISA in PBMCs. In kind it is cell-based, human. Conditions: 24 h. How it is done:
Cryopreserved PBMCs from a single donor were thawed in RPMI-1640 plus 10% FBS. PBMCs were plated at 5×10^4/well in 96-well plates and compound was added with a final concentration of 0.5% DMSO. Plates were incubated for 24 h at 37°C, 5% CO2. Interleukin-2 was quantified using Human IL-2 DuoSet ELISA (R&D Systems, Minneapolis, MN). Raw data were converted to ng/ml IL-2 using a standard curve obtained in parallel.

Series [5] has as its system Kaposi's sarcoma associated herpesvirus (KSHV) in BCP-1 cells. Nature of the series: KSHV activation assay in BCP-1 cells (ORF50 qRT-PCR). Format: cell-based. Conditions: 24 h, concentrations as low as 0.014 ng/ml. A general note: In qPCR the cycle at which signal appears reflects the starting amount.
For series [6], the system named is Epstein-Barr virus (EBV) in Raji cells. As to the kind of experiment: EBV activation assay in Raji cells (BZLF1 qRT-PCR). In kind it is cell-based. Conditions: Raji cells, 24 h, concentrations as low as 0.014 ng/ml.
The nature of series [7]: Microsome assay, human liver microsomes. In kind it is in vitro ADME. How it is done: (§1) Human and mouse liver microsomes were obtained from XenoTech, LLC (Kansas City, KS). The reaction mixture was composed of liver microsomes (0.5 mg/mL), 20 mM Tris-HCl pH 7.4, 2.5 mM MgCl2, and an NADPH generating system (0.1 mM NADP, 1.2 mM glucose-6-phosphate and 0.3 units/ml glucose-6-phophate dehydrogenase). […] Test compounds were added to the microsome reaction and loss of parent molecule was monitored after 1 h by LC/MS/MS.
In general terms: Microsomes from liver hold many membrane-bound enzymes, among them those of drug oxidation.

Series [8] can be described thus: Microsome assay, mouse liver microsomes. Format: in vitro ADME. How it is done: as §1
Series [9] relates to HIV-1 transcription in 24STNLSG cells. Nature of the series: SEAP assay in 24STNLSG cells (latency reactivation). In kind it is cell-based. Conditions: for EC2X, 24STNLSG: concentration for 2-fold increase in SEAP activity; for Activity in 24STNLSG cells (in words): structure-activity. How it is done:
SupT1-derived 24STNLSG cells were plated at 100,000 cells/well in black bottom/black walled 96-well plates in 50 μl RPMI-1640 medium (without phenol red) containing 10% FBS. Compound was added in 50 μl of identical medium using three-fold dose-response dilutions, in duplicate. […] TNF-α, a nuclear factor-κB (NF-κB) activator known to induce HIV- expression in cellular models, was used as a positive control. Plates were incubated for 72 h at 37°C, 5% CO2. Plates were then sealed and heated to 65°C for 30 min. Plates were brought to room temperature and 50 μl assay buffer (1 mM MgCl2, 10 mM L-homoarginine, 1 M diethylamine hydrochloride) was added to each well and incubated for 5 min at room temperature. To each well, 50 μl of CSPD Substrate (0.4 mM Ready-to-Use with Sapphire-II Enhancer; Applied Biosystems, Foster City, CA) was added. Plates were incubated for 20 min at room temperature and read on a ViewLux microplate imager (Perkin Elmer, Waltham, MA). Curves were fit by non-linear regression using Prism software (GraphPad, San Diego, CA).

Series [10] can be described thus: Cytotoxicity assay in SupT1 cells (ATP, CellTiter-Glo). In kind it is cell-based. Conditions: human, SupT1 cells; ATP quantification; 72 h; read-out: CC50, SupT1. How it is done: SupT1 cells were plated at 100,000 per well in 96-well, white-walled plates with serial dilutions of test compound in a total volume of 100 μl RPMI-1640 medium containing 10% FBS and 0.5% DMSO. PBMCs were plated similarly at 50,000 cells/well and stimulated by addition of 40 μg/ml PHA and 80 ng/ml interleukin-2 (IL-2). Cells were incubated for 72 h at 37°C, 5% CO2. ATP was quantified using the CellTiter-Glo Luminescent Cell Viability Assay (Promega, Madison, WI) on a ViewLux microplate imager (Perkin Elmer, Waltham, MA). Percent cytotoxicity was determined relative to vehicle-only treated wells.

Series [11] concerns NF-κB response element reporter in Jurkat cells. As to the kind of experiment: NF-κB-responsive Fluc reporter in Jurkat cells. Conditions: stably-transfected Jurkat cells, 4 h. In kind it is cell-based, human. From the text: The vector pGL4.32[luc2P/NF-κB-RE/Hygro] was purchased from Promega (Madison, WI), encoding 5 copies of a NF-κB response element driving expression of synthetic firefly luciferase gene, luc2, including a PEST destabilization sequence. Jurkat cells were transfected with this vector using a Gene Pulser® II (Biorad, Hercules, CA) with a 0.4 cm gap cuvette at 0.2 kV and 960 μF. Cells were allowed to recover for three days in RPMI-1640 with 10% FBS and 1% penicillin/streptomycin before selection with 200 μg/ml Hygromycin B for one month. Pooled, stably-transfected cells were plated at 50,000/well in 96-well plates and treated with test compounds in a final concentration of 0.5% DMSO for 4 h at 37°C. Luciferase activity was determined by adding one volume 2× steadylite plus reagent (Perkin Elmer, Waltham, MA) and reading on a ViewLux microplate imager.

Series [12] relates to HIV-1 LTR. As to the kind of experiment: HIV LTR-driven Rluc reporter in HeLa cells. Format: cell-based. Conditions: transfected HeLa cells, 24 h. From the text:
The vector pGL4.77[hRlucP/Hygro] encoding a Renilla luciferase gene including a PEST destabilization sequence, was purchased from Promega (Madison, WI). HIV-1 cDNA was generated from HIVIIIB virus using PureLink® Viral RNA/DNA Mini Kit (Invitrogen). The HIV-1 core promoter region (nucleotides -105 to 60) was amplified from HIVIIIB cDNA using primers designed with NheI (forward: 5ʹ-GCTAGCGGGACTTTCCGCTGGG-3ʹ) and XhoI (reverse: 5ʹ-CTCGAGAGTGGGTTCCCTAGTTAGCCA-3ʹ) flanking restriction site sequences. DNA fragments were generated using Platinum® Taq DNA Polymerase High Fidelity (Invitrogen) and fragment size was verified by electrophoresis using E-Gel® 1.2% agarose (Invitrogen). Fragments were cloned into pCR™2.1 TOPO® (Invitrogen), transformed into One Shot® TOP10 Chemically Competent E. coli (Invitrogen), and selected on LB-agar plates containing 100 μg/ml ampicillin. Individual colonies were grown in LB broth, DNA was isolated using QIAprep® Spin Miniprep Kit (Qiagen), and the inserted fragment was verified by EcoRI digestion followed by electrophoresis using E-Gel® 1.2% agarose (Invitrogen). To insert the HIV-1 LTR into the vector multiple cloning region, the resultant plasmids and pGL4.77[hRlucP/Hygro] were dually digested with NheI and XhoI (New England Biolabs), ligated using ExpressLink™ T4 DNA Ligase (Invitrogen), transformed into One Shot® TOP10 Chemically Competent E. coli (Invitrogen), and selected on LB-agar plates containing 100 μg/ml ampicillin. Clones were picked and DNA isolated using QIAprep® Spin Miniprep Kit (Qiagen) and the inserted fragment was verified by NheI/XhoI digestion followed by electrophoresis using E-Gel® 1.2% agarose (Invitrogen). The resultant plasmid, pGL4.77-LTR, was verified by sequencing at GENEWIZ (South Plainfield, NJ). […] Luciferase activity was quantified using Renilla Luciferase Assay System (Promega, Madison, WI) and results were normalized to the vehicle-treated control.

Turning to `CC(C)NCC(O)COc1cccc2ccccc12` (stereo not shown) [Propanolol, propranolol, reference compound], the “% Plasma protein binding (human)” value in series [1] is listed as 74.3%. In addition, in [2] (mouse plasma, 10 μM), the “% Plasma protein binding (mouse)” value was found to be 73.8%.

`O=C(CCCCCCC(=O)Nc1ccccc1)NO` [SAHA, Suberanilohydroxamic acid, reference compound]: in [3], the “Intracellular Gag, percentage of positive cells” value (“Intracellular Gag, percentage” below) worked out at 23.0%.

In the case of `CCCCCCCCCCCCCC(=O)O[C@@H]1[C@@H](C)[C@@]2(O)[C@@H](C=C(CO)C[C@]3(O)C(=O)C(C)=C[C@@H]23)[C@@H]2C(C)(C)[C@]12OC(C)=O` [PMA, phorbol 12-myristate 13-acetate, reference compound], the “Intracellular Gag, percentage” value in series [3] amounted to 94.2%. Besides, the “IL-2 secretion by PBMCs (in words)” value in series [4] is “induced high levels of IL-2”. In addition, the “Stimulation of ORF50 mRNA (KSHV)” value in series [5] is listed as more than 35 fold. In series [6], the “Stimulation of BLZF1 mRNA (EBV)” value is more than 35 fold.

Consider `CC(C)N(CCC(C(N)=O)(c1ccccc1)c1ccccn1)C(C)C` (stereo not shown) [Disopyramide, reference compound], for which, in series [7], the “HLM stability (% loss of parent compound at 1 h)” value is 9%. In series [8], the “MLM stability (% loss of parent compound at 1 h)” value turned out to be 12%.

As for `Nc1ccc2oc(-c3ccc(-c4nc5cc(N)ccc5o4)cc3)nc2c1` [Compound 5], the “EC2X, 24STNLSG” value in [9] (72 h) is more than 100 µM. Also, the “Activity in 24STNLSG cells (in words)” value in [9] was “inactive”. Also, the CC50 at 72 h in [10] was more than 100 µM.

Turning to `Cc1sc2c(c1C)C(c1ccc(Cl)cc1)=N[C@@H](CC(=O)OC(C)(C)C)c1nnc(C)n1-2` [JQ1, reference compound], the “Intracellular Gag, percentage” value in [3] was 16.7%.

As for `Cn1c(-c2ccc(-c3nc4cc(N)ccc4o3)cc2)nc2cc(N)ccc21` [Compound 4], the “EC2X, 24STNLSG” value in series [9] (72 h) was more than 100 µM. In addition, the “Activity in 24STNLSG cells (in words)” value in [9] is recorded as “complete loss of activity”. For the same compound, in series [10], the CC50 at 72 h was more than 100 µM.

Regarding `CC(=O)CC(c1ccccc1)c1c(O)c2ccccc2oc1=O` (racemic) [Warfarin, (RS)-warfarin, reference compound], the fraction unbound at 15 min, 10 μM in [2] (mouse, plasma) was 0.047.

Regarding `Nc1ccc2[nH]c(-c3ccc(-c4nc5cc(N)ccc5[nH]4)cc3)nc2c1` [Compound 6], the “EC2X, 24STNLSG” value in series [9] (72 h) was more than 100 µM. For the same compound, the “Activity in 24STNLSG cells (in words)” value in [9] was “inactive”. In series [10], the CC50 at 72 h is more than 100 µM.

As to TNF-α, the “Induction of NF-κB driven reporter (in words)” value in [11] was “strongly induced this reporter”. The “Transcription driven by the HIV-1 LTR (in words)” value in series [12] is “significantly increased expression of this reporter”.

On to `Nc1ccc2[nH]c(-c3ccc(-c4nc5c(N)cccc5o4)cc3)nc2c1` [Compound 3], for which, in series [9] (SEAP reporter, 72 h), the “Max. fold induction, 24STNLSG” value was determined as 3 fold. The “EC2X, 24STNLSG” value in [9] (72 h) was found to be 3.7 µM. In addition, in series [10], the CC50 at 72 h was found to be 8.8 µM.

The CC50 is the concentration that lowers cell viability or growth by half. A word on the fraction unbound: it is free concentration divided by total concentration. Lower therefore signals little free substance.
